pIC50: −log10 of the molar value.
Molecular target: Sphingosine 1-phosphate receptor 1 (Homo sapiens, UniProt P21453)
Assay: Receptor Calcium FLIPR Antagonist Assay: The assay measures intracellular changes of Ca2+ mediated by the synthetic probing agonist 3-{[2-(2-Trifluoromethyl-biphenyl-4-yl)-benzo[b]thiophen-5-ylmethyl]-amino}-propionic acid (GNF-AC-1) in the HeLa-S1P1/Galpha16 cell clone 1: HeLa (human cervix carcinoma, ATCC CCL2) cells stably expressing N-terminally myc-tagged human S1P1 receptors (GenBank accession No. NM001400; UNIPROT P21453) and promiscuous Galpha16 protein (GenBank accession number M63904, Swissprot P30679) are cultured at 37 C., 5% CO2, and 95% relative humidity. The cells are plated in 384 well black plates (10'000 cells per well). After 24 hours the cells are loaded with Fluo-4-AM (1.6 uM in HBSS and 2.5 mM probenicid) for 1 hour at 37 C. After washing, the cells are transferred to the FLIPR. The test compounds are added at different concentrations (<=100 uM) in HBSS in the presence of 0.1% BSA and changes in fluorescence are recorded (indication of agonism).
Type: functional, cell-based

Sphingosine 1-phosphate receptor 1, sequence (P21453 whole entry): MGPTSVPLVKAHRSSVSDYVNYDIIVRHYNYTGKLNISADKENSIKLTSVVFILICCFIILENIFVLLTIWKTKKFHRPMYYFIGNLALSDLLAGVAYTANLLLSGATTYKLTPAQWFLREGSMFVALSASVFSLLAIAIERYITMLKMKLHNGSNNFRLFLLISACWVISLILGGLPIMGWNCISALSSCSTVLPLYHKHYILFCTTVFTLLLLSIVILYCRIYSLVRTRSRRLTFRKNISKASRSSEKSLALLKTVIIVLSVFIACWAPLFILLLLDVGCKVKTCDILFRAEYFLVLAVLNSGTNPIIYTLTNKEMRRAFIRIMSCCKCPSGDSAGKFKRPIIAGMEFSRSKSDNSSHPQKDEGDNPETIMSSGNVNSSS

## Cc1cc([C@H](Nc2ccc(F)c(CN3CC(C(=O)O)C3)c2)C(F)(F)F)ccc1Cl
  pIC50: 10.00

## CC[C@@H](Nc1ccc(Cl)c(CNCCC(=O)O)c1)c1cc(C)c(Cl)c(C)c1
  pIC50: 8.62

Reference: ChEMBL document CHEMBL3638859, “Aryl benzylamine compounds” (2014)
